The subject of this test is P388 leukemia ip, CD2F1 mice, survival T/C. The experiment in a line: NCI In Vivo Anticancer Drug Screen. Data for tumor model P388 Leukemia (intraperitoneal) in CD2F1 (CDF1) mice. Conditions: endpoint: median survival time, higher = longer survival. In short, it runs like this:
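Mice carrying the transplanted tumor received test compound or vehicle. Survival was recorded in each group, and the value is the treated-group measurement divided by that of the vehicle-treated control group.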

[1] abbreviates: dose: 60.0 mg/kg/injection, schedule: Q01DX005 (ip), vehicle: saline with Tween-80.
Where [2] appears, read: dose: 120.0 mg/kg/injection, schedule: Q01DX005 (ip), vehicle: saline with Tween-80.
Setting [3] is: dose: 50.0 mg/kg/injection, schedule: Q01DX009 (ip), vehicle: saline with Tween-80.
[4] abbreviates: dose: 50.0 mg/kg/injection, schedule: Q01DX005 (ip), vehicle: saline with Tween-80.
Where [5] appears, read: dose: 100.0 mg/kg/injection, schedule: Q01DX005 (ip), vehicle: saline with Tween-80.
Setting [6] is: dose: 200.0 mg/kg/injection, schedule: Q01DX005 (ip), vehicle: saline with Tween-80.
Setting [7] is: dose: 50.0 mg/kg/injection, schedule: Q01DX005 (ip), vehicle: Klucel (hydroxypropylcellulose) (HPC).
The mark [8] stands for this setting: dose: 100.0 mg/kg/injection, schedule: Q01DX005 (ip), vehicle: Klucel (hydroxypropylcellulose) (HPC).
Setting [9] is: dose: 200.0 mg/kg/injection, schedule: Q01DX005 (ip), vehicle: Klucel (hydroxypropylcellulose) (HPC).
Where [10] appears, read: dose: 100.0 mg/kg/injection, schedule: Q01DX001 (ip), vehicle: saline with Tween-80.
[11] abbreviates: dose: 200.0 mg/kg/injection, schedule: Q01DX001 (ip), vehicle: saline with Tween-80.
[12] abbreviates: dose: 400.0 mg/kg/injection, schedule: Q01DX001 (ip), vehicle: saline with Tween-80.

The record followed here is PubChem BioAssay AID330 (DTP/NCI, 2004).

Values joined by “and” are separate entries in the source; they are usually repeats but may differ in a detail not shown here. Equal values may be shown once. Inconclusive results and toxic doses are left out.

With `c1ccc(OCc2nn3c(-c4ccccc4)nnc3s2)cc1`, the T/C runs as follows: under setting [1], 107 % of control; under setting [2], 94 % of control; (dose: 240.0 mg/kg/injection, schedule: Q01DX005 (ip), vehicle: saline with Tween-80) 93 % of control.

For the molecule `CCCCOC(=O)/C=C(\Br)C(=O)OCCCC`, the T/C by setting is: under setting [3], 114 % of control; (dose: 100.0 mg/kg/injection, schedule: Q01DX009 (ip), vehicle: saline with Tween-80) 124 % of control.

Turning to `CCOC(=O)C1C(O)CC2c3ccccc3-c3ccccc3C21` (centres undefined), the T/C under setting [1] was 87 % of control and the T/C under setting [2] was 87 % of control.

Take `O=C(CCCCC(=O)Nc1ccc2c(=O)c3ccccc3[nH]c2c1)Nc1ccc2c(=O)c3ccccc3[nH]c2c1`: the T/C by setting is: under setting [4], 99 % of control; under setting [5], 104 % of control; under setting [6], 104 % of control.

On to `Nc1nc(-c2ccc([N+](=O)[O-])cc2)cc(-c2cc(-c3ccc([N+](=O)[O-])cc3)nc(N)n2)n1`, for which the T/C was 87 % of control (dose: 60.0 mg/kg/injection, schedule: Q01DX005 (ip), vehicle: Klucel (hydroxypropylcellulose) (HPC)); 89 % of control (dose: 120.0 mg/kg/injection, schedule: Q01DX005 (ip), vehicle: Klucel (hydroxypropylcellulose) (HPC)); 94 % of control (dose: 240.0 mg/kg/injection, schedule: Q01DX005 (ip), vehicle: Klucel (hydroxypropylcellulose) (HPC)).

As to `CCCCCCn1[nH]nc(C(=O)OC)c1=O` (tested in a mixture with another compound), the T/C is, setting by setting: under setting [7], 94 % of control; under setting [8], 87 % of control; under setting [9], 92 % of control.

In the case of `CO[C@@H]1[C@H](O)c2ccccc2N1C(C)=O`, the T/C reads like this: (dose: 60.0 mg/kg/injection, schedule: Q01DX005 (ip), vehicle: saline) 102 % of control; (dose: 120.0 mg/kg/injection, schedule: Q01DX005 (ip), vehicle: saline) 108 % of control; (dose: 240.0 mg/kg/injection, schedule: Q01DX005 (ip), vehicle: saline) 101 % of control.

Consider `NC(N)=NC(N)=Nc1c(F)c(F)c(F)c(F)c1F`, for which the T/C reads like this: (dose: 6.25 mg/kg/injection, schedule: Q01DX009 (ip), vehicle: saline with Tween-80) 107 % of control; (dose: 12.5 mg/kg/injection, schedule: Q01DX009 (ip), vehicle: saline with Tween-80) 100 % of control; (dose: 25.0 mg/kg/injection, schedule: Q01DX009 (ip), vehicle: saline with Tween-80) 101 % of control and 113 % of control; under setting [3], 116 % of control.

In the case of `CNc1nc2ncnc(NC)c2[nH]1`, the T/C is 99 % of control under setting [4], 92 % of control under setting [5] and 90 % of control under setting [6].

Regarding `Cc1ccc(NC(=O)CCC(=O)NS(C)(=O)=O)cc1`, the T/C reads like this: under setting [10], 94 % of control; under setting [11], 94 % of control; under setting [12], 95 % of control.

For `N=[N+]=CC(=O)OCC(N)C(=O)O` (centres undefined), the T/C (dose: 2.3 mg/kg/injection, schedule: Q01DX009 (ip), vehicle: water) is 118 % of control; the T/C (dose: 6.25 mg/kg/injection, schedule: Q04DX003 (ip), vehicle: water) is 120 % of control; the T/C (dose: 18.8 mg/kg/injection, schedule: Q01DX009 (ip), vehicle: water) is 86 % of control and 91 % of control; the T/C (dose: 20.0 mg/kg/injection, schedule: Q01DX009 (ip), vehicle: saline) is 169 % of control; the T/C (dose: 25.0 mg/kg/injection, schedule: Q01DX009 (ip), vehicle: saline) is 153 % of control; the T/C (dose: 25.0 mg/kg/injection, schedule: Q04DX003 (ip), vehicle: water) is 157 % of control. Besides, the T/C is, setting by setting: (dose: 40.0 mg/kg/injection, schedule: Q01DX009 (ip), vehicle: saline) 107 % of control and 121 % of control; (dose: 41.7 mg/kg/injection, schedule: Q01DX009 (ip), vehicle: saline) 166 % of control; (dose: 50.0 mg/kg/injection, schedule: Q04DX003 (ip), vehicle: water) 111 % of control.

With `O=NNc1nc(-c2cccnc2)nc2ccccc12`, the T/C runs as follows: (dose: 1.25 mg/kg/injection, schedule: Q01DX009 (ip), vehicle: water) 112 % of control; (dose: 2.5 mg/kg/injection, schedule: Q01DX009 (ip), vehicle: water) 110 % of control; (dose: 5.0 mg/kg/injection, schedule: Q01DX009 (ip), vehicle: water) 111 % of control; (dose: 10.0 mg/kg/injection, schedule: Q01DX009 (ip), vehicle: water) 100 % of control.

As to `O=C(Oc1ccc[nH]c1=O)C1CCCCC1`, the T/C was 108 % of control and 96 % of control under setting [7]; 100 % of control and 89 % of control under setting [8]; 102 % of control and 86 % of control under setting [9]; 92 % of control and 97 % of control (dose: 400.0 mg/kg/injection, schedule: Q01DX005 (ip), vehicle: Klucel (hydroxypropylcellulose) (HPC)).

In the case of `COc1cc(-c2ccc(Nc3ccccc3C(=O)O)c(OC)c2)ccc1N`, the T/C is 110 % of control (dose: 50.0 mg/kg/injection, schedule: Q04DX003 (ip), vehicle: saline with Tween-80); 150 % of control (dose: 100.0 mg/kg/injection, schedule: Q04DX003 (ip), vehicle: saline with Tween-80); 104 % of control (dose: 132.0 mg/kg/injection, schedule: Q04DX003 (ip), vehicle: saline with Tween-80).

Take `O=C1c2ccccc2C(=O)c2c1nc1sccn21`: the T/C by setting is: (dose: 3.12 mg/kg/injection, schedule: Q01DX005 (ip), vehicle: Klucel (hydroxypropylcellulose) (HPC)) 104 % of control; (dose: 6.25 mg/kg/injection, schedule: Q01DX005 (ip), vehicle: Klucel (hydroxypropylcellulose) (HPC)) 108 % of control; (dose: 12.5 mg/kg/injection, schedule: Q01DX005 (ip), vehicle: Klucel (hydroxypropylcellulose) (HPC)) 102 % of control and 104 % of control; under setting [7], 105 % of control.

Take `CCCCCCCCCC[N+]1(CC)CCCCC1`: the T/C is, setting by setting: (dose: 3.12 mg/kg/injection, schedule: Q01DX009 (ip), vehicle: saline) 119 % of control; (dose: 6.25 mg/kg/injection, schedule: Q01DX009 (ip), vehicle: saline) 121 % of control; (dose: 12.5 mg/kg/injection, schedule: Q01DX009 (ip), vehicle: saline) 105 % of control.

On to `O=C(N/N=C/c1cc(Br)cc(Br)c1[O-])c1ccccc1.O=C(N/N=C/c1cc(Br)cc(Br)c1[O-])c1ccccc1.[Fe+2]`, for which the T/C by setting is: under setting [10], 86 % of control; under setting [11], 86 % of control; under setting [12], 93 % of control.

As to `CC(=O)C1=C(N)C(C#N)=C(C)C(C)(O)C1` (centres undefined), the T/C by setting is: (dose: 50.0 mg/kg/injection, schedule: Q01DX009 (ip), vehicle: saline + alcohol) 108 % of control; (dose: 100.0 mg/kg/injection, schedule: Q01DX009 (ip), vehicle: saline + alcohol) 90 % of control; (dose: 200.0 mg/kg/injection, schedule: Q01DX009 (ip), vehicle: saline + alcohol) 89 % of control.

For the molecule `C=Cc1ccc(Oc2ccccc2)cc1`, the T/C runs as follows: (dose: 25.0 mg/kg/injection, schedule: Q04DX003 (ip), vehicle: saline) 100 % of control; (dose: 50.0 mg/kg/injection, schedule: Q04DX003 (ip), vehicle: saline) 95 % of control; (dose: 100.0 mg/kg/injection, schedule: Q04DX003 (ip), vehicle: saline) 109 % of control.

Take `N#CCC[P+](CCC#N)(CCC#N)CCN1C(=O)c2ccccc2C1=O`: the T/C by setting is: (dose: 0.78 mg/kg/injection, schedule: Q01DX009 (ip), vehicle: water) 96 % of control; (dose: 1.56 mg/kg/injection, schedule: Q01DX009 (ip), vehicle: water) 89 % of control; (dose: 3.13 mg/kg/injection, schedule: Q01DX009 (ip), vehicle: water) 100 % of control; (dose: 6.25 mg/kg/injection, schedule: Q01DX009 (ip), vehicle: water) 115 % of control; (dose: 12.5 mg/kg/injection, schedule: Q01DX009 (ip), vehicle: water) 108 % of control; (dose: 25.0 mg/kg/injection, schedule: Q01DX009 (ip), vehicle: water) 102 % of control and 117 % of control. The T/C by setting is: (dose: 50.0 mg/kg/injection, schedule: Q01DX009 (ip), vehicle: water) 100 % of control; (dose: 100.0 mg/kg/injection, schedule: Q01DX009 (ip), vehicle: water) 100 % of control; (dose: 200.0 mg/kg/injection, schedule: Q01DX009 (ip), vehicle: water) 101 % of control.
